Results on 5 molecules are retold here after patent publication US11198680B2 (BioAxone BioSciences, Inc., priority 2016, dated 2021).

In assay [1] the target is SERT (serotonin transporter) (Homo sapiens (Human), UniProt P31645). Particulars: Sturdivant et al., ibid.; cited from earlier work.
In assay [2] the target is NET (norepinephrine transporter) (Homo sapiens (Human), UniProt P23975). The settings on record: Sturdivant et al., ibid.; cited from earlier work.
Assay [3] has as its target T1, ROCK2 (Homo sapiens (Human), UniProt O75116). Description: Direct filter-binding radiometric kinase assay, IC50 determination. The class given is biochemical.
Assay [4] relates to HUVEC monolayer. Description: LPA-treated HUVECs, endothelial monolayer integrity. The class given is cell-based, human. The settings on record: 1 μM or 10 μM, 20 μM LPA 60 min.
Description: (§1) Cell lines were exposed to each dose for 1 hr, and then are stimulated with 20 μM LPA for either 5 min or 1 hr as described below. All experiments were conducted in triplicate and analyzed by two independent assessors blinded to both cell line and treatment.
To examine HUVEC monolayer integrity, cells were plated on PDL-coated coverslips (Corning) coated with fibronectin, collagen-1 and gelatin. 50,000 cells were seeded on each coverslip situated in a 24-well plate. Cells were grown for 3 days at 37° C./5% CO2. […] The medium was exchanged by Medium 200 supplemented with 0.1% HSA and 20 μM of LPA (Santa Cruz) and incubated for 60 min.
After LPA stimulation, cells were fixed with 4% paraformaldehyde and stained for actin-phalloidin (ThermoFisher, Waltham, Mass.) and V-Cadherin (Cell Signaling, Danvers, Mass.) and mounted on microscope slides. Coverslips were imaged by fluorescence microscopy and the cell free holes in the monolayer are measured using Image J (freeware; https://imagej.nih.gov/ij/).
The subject of assay [5] is Rho/ROCK activity (MLC2 diphosphorylation) in HUVECs. Description: LPA-treated HUVECs, pMLC2 T18/S19 immunoblot. Type of assay: cell-based, human. The settings on record: 1-100 μM 1 hr, 20 μM LPA 5 min. (In general: Immunoblotting shows a protein as a band on a membrane.)
Description: as §1
Cells were subjected to biochemical analysis of diphosphorylated MLC2 (Threonine 18/Serine 19 phosphorylation sites) and cofilin (Serine 9 phosphorylation site) using SDS-PAGE and immunoblotting. Cells were plated in 24-well tissue culture plates coated with 70 μg/ml rat collagen-1 (Corning; Corning, N.Y.), and grown for 2 d to 3 d at 37° C./5% CO2 until confluency. […] Then medium was exchanged for Medium 200 supplemented with 0.1% HSA (Sigma-Aldrich) and 20 μM of LPA (Santa Cruz Biotech; Santa Cruz, Calif.) and incubated for 5 min. After LPA stimulation, proteins were extracted from cells by lysis with RIPA buffer supplemented with HALT complete protease/phosphatase inhibitor (ThermoFisher, Waltham, Mass.), reduced and denatured using Laemmli sample buffer (BioRad, Hercules, Calif.)/beta-mercaptoethanol and subjected to SDS-PAGE.
Denatured samples were electrophoresed in reducing 10% Bis-Tris-gels polyacrylamide gels (Novex; Thermo-Fisher, Waltham, Mass.) and were transferred onto 0.25 μm PVDF membranes (EMD Millipore, Billerica, Mass.). Membranes are probed using amti-pMLC2 T18/S19 (1:500; Cell Signaling, Danvers, Mass.) or anti-pCofilin S9 (1:500, Cell Signaling, Danvers, Mass.) and anti-glyceraldehyde 3-phosphate dehydrogenase loading control (GAPDH, 1:10000; Abcam). Protein levels were detected using chemiluminescence substrate (Super Signal West, ThermoFisher, Waltham, Mass.) and images captured using a FluoroChem SP Imaging System.
Assay [6] has as its system Rho/ROCK activity (MLC2 diphosphorylation) in human brain microvascular endothelial cells. Description: LPA-treated hBMVECs, pMLC2 T18/S19 immunoblot. Type of assay: cell-based. Particulars: 20 μM LPA, Example 16, present tense, no data shown.
Description: (§2) Cells are exposed to each dose for 1 hr, and are then stimulated with 20 μM LPA for either 5 min or 1 hr as described below. All experiments are conducted in triplicate and analyzed by 2 independent assessors blinded to both cell line and treatment.
Cells are subjected to biochemical analysis of diphosphorylated MLC2 (Threonine 18/Serine 19 phosphorylation sites) and phosphorylated cofilin (Serine 9 phosphorylation site) using SDS-PAGE and immunoblotting. Cells are plated in 24-well tissue culture plates coated with 70 μg/ml rat collagen-1 (Corning) and grown in ENDO-growth media (Neuromics) for 3 days at 37° C./5% CO2 until confluency. […] The medium is exchanged for ENDO basal media supplemented with 1% HSA, 20 μM of LPA (Santa Cruz Biotech; Santa Cruz, Calif.) and the appropriate amount of compound being tested. After 5 min, the medium is aspirated and the cells are briefly washed with 1×PBS. Proteins are extracted from cells by lysis with RIPA buffer supplemented with complete protease/phosphatase inhibitor (HALT, Thermo Fisher Scientific), reduced and denatured using Laemmli sample buffer (BioRad; Hercules, Calif., beta-mercaptoethanol and subjected to SDS-PAGE.
Denatured samples are electrophoresed in reducing 10% Bis-Tris-PA gels (Novex; Thermo-Fisher), and are transferred onto 0.25 μm PVDF membranes (EMD Millipore). Membranes are probed using amti-pMLC2 T18/S19 (1:500; Cell Signaling) or anti-pCofilin (1:500, Cell Signaling S9) and anti-glyceraldehyde 3-phosphate dehydrogenase loading control (GAPDH, 1:10000; Abcam, Cambridge, Mass.). Protein levels are detected using a chemiluminescence substrate (Super Signal West, ThermoFisher) and images are captured using a FluoroChem SP Imaging System.
Assay [7] has as its target T2, ROCK1 (Homo sapiens (Human), UniProt Q13464). Description: Direct filter-binding radiometric kinase assay, IC50 determination. Type of assay: biochemical. The method, then:
Variations in ATP concentrations were tested to better understand potential selectivity in ischemic and diseased tissue where ATP concentrations may be low and impact selectivity.
[…] Both services use a direct filter-binding, radiometric kinase assay with slight variation in protocol.
The top concentration tested was 100 μM for both services. Test compounds were prepared in 100% DMSO at 50× final test concentration and were diluted to 1× in the assay with a final DMSO concentration of 2%.
For one assay, the substrate […] (SEQ ID NO:1) (30 μM) was mixed with reaction buffer (Table 4) and the kinase domain from either the ROCK1 or ROCK2 (as indicated in Table 4). Next, the compounds (in DMSO) were delivered into the mixture via acoustic mixing technology (Echo550, nanoliter range) (SelectScience, Waltham, Mass.), and incubated at RT for 20 min. […] Reactions were then spotted onto P81 ion exchange paper followed by scintillation counting.
The reaction was stopped by the addition of 3% phosphoric acid and 10 μL of the reaction was spotted onto P30 filtermat, washed 3 times in 75 mM phosphoric acid and once in methanol prior to scintillation counting.

Assay [8] has as its system hBMVEC monolayer. Description: LPA-treated hBMVECs, endothelial monolayer integrity. The class given is cell-based, human. Particulars: 1 μM or 10 μM, 20 μM LPA, Example 16, present tense.
Description: as §2
To examine hBMVECs monolayer integrity, cells are plated on PDL-coated coverslips (Corning) coated with Fibronectin, Collagen-1 and gelatin. 50,000 cells are seeded on each coverslip situated in a 24-well plate. Cells are grown for 3 days in ENDO-growth media (Neuromics) at 37° C./5% CO2. […] The medium is exchanged for ENDO basal media supplemented with 1% HSA, 20 μM of LPA (Santa Cruz Biotech; Santa Cruz, Calif.) and the appropriate amount of compound being tested. After 60 min, cells were fixed with 4% paraformaldehyde and stained for actin-phalloidin (ThermoFisher) and V-Cadherin (Cell Signaling), and then were mounted on microscope slides. Coverslips were imaged by fluorescence microscopy and the cell-free holes in the monolayer are measured using Image J. 3.
In assay [9] the target is T2, ROCK1.
Description: (§3) The assay is performed by combining the DNA-tagged kinase, immobilized ligand, and a test compound. The ability of the test compound to compete with the immobilized ligand is measured via quantitative PCR of the DNA tag.
(§4) The highest concentration tested was 30 μM.
Assay [10] deals with T1, ROCK2. Particulars: for Fold-Difference: ROCK1 KD vs ROCK2 KD.
Description: as §3, §4
The test system of assay [11] is phospho-MLC2 (Ser19). Put plainly: Transient MCAO stroke model, phospho-MLC2 (Ser19) immunohistochemistry of insular cortex. The settings on record: 10 mg/kg I.P. The class given is in vivo, mouse. As for the experimental part:
For immunohistochemistry, mice were anesthetized using isoflurane and perfused intracardially using paraformaldehyde (4% PFA), brain and weights were recorded. Brain specimens from fixed animals were frozen in OCT and sectioned using a cryostat.
Frozen tissue sections embedded in OCT were analyzed by immunohistochemistry. The left side of the brain slice contains ischemic tissue due to the MCAO while the right hemisphere acts as a control without ischemia. Staining with these antibodies provide biomarkers for both ischemic area and ROCK2 activation.

Assay [12] concerns ROCK2 activation (phospho-cofilin). Description: Transient MCAO stroke model, phospho-cofilin Western blot left versus right brain. The settings on record: 10 mg/kg I.P. within 30 min after MCAO, tissue 24 hr post MCAO. Type of assay: in vivo, mouse.
Description: The murine intraluminal monofilament model of middle cerebral artery occlusion (MCAO) is used on mice in this study. MCAO involves the insertion of a surgical filament into the external carotid artery and threading it forward into the internal carotid artery until the tip occludes the origin of the MCA, resulting in a cessation of blood flow and subsequent brain infarction in the MCA territory. The technique is used herein to model transient occlusion. If the filament is removed after 1 h, reperfusion is achieved (transient MCAO). This study determines the most efficacious dose and route of administration that reduce Rho-kinase 2 (ROCK2) activation following transient MCAO-induced stroke in mice. The pharmacodynamic response is also determined in this study.
Twenty-eight 9-wk old C57BL/6 (Charles River Laboratories) were used in this study. For surgery, the mouse was placed in a supine position on an infrared heating pad. The fur over the ventral neck was shaved and the skin was disinfected with 70% ethanol and povidone iodine. Under a stereo dissecting microscope, a 1 cm midline incision was made on the neck and retractors were used to expose the left common carotid artery (CCA), the external carotid artery (ECA) and the internal carotid artery (ICA). The arteries were carefully dissected to free them from surrounding nerves and fascia. The ECA was dissected further distally and two 8-0 silk sutures are tied around the ECA stump and a vascular clamp was applied at the bifurcation of the CCA into the ECA and ICA. A small incision was made at the end of ECA stump with Vannas-style spring scissors. A blunt 5-0 monofilament suture (Doccol) was inserted into the incision and advanced from the lumen of the ECA into the ICA for a distance of 9-10 mm beyond the bifurcation of CCA to occlude the origin of MCA. For the mouse model, a distance of 9 mm-11 mm rostral to the CCA bifurcation is inserted. After 60 min., the monofilament was removed. The incision was sutured with 4.0 prolene sutures. […] The mouse is allowed to recover on a heating pad until thermoregulation is re-established.
For Western blot analysis, mice were anesthetized using isoflurane and decapitated. […]
20 μL protease inhibitor (Halt, Protease, Fisher Scientific, Pittsburgh, Pa.) and 10 μL phosphatase inhibitor (Fisher Scientific) were added to 1 mL RIPA buffer (Santa Cruz Biotechnology, Dallas, Tex.). […] The protein concentration of each sample was determined using the DC Protein Assay Kit and following the manufacturer's instructions.
The left and right hemispheres of each brain were homogenized and prepared for Western blotting, and the signal of phospho-cofilin was measured quantitatively by densitometry compared to an internal standard, cyclophilin. […]
The target of assay [13] is T1, ROCK2. Description: ROCK2 inhibition curves, MYPT1 substrate plate assay. Particulars: purified ROCK2, MYPT1 substrate. Type of assay: biochemical. As for the experimental part: Each compound was dissolved at 100 mM in DMSO. This compound-DMSO solution is diluted to 500 μM in dH2O. Serial dilutions were prepared so that a semi-log range of compound is present after being diluted 5× in other assay reagents, from 100 μM through 1 nM.
10 μL of each concentration of each compound was added in duplicate to individual wells of a 96-well Maxisorp plate (ThermoFisher) pre-coated with the ROCK2 substrate MYPT1 (ThermoFisher). dH2O is added as a negative control.
Using a multichannel pipettor, […] of final volume per well was made by the addition of the following of each solution to begin the reaction: 10 μL 20 mM MOPS pH 7.2, 25 mM β-glycerophosphate, 5 mM EGTA, 1 mM Na3VO4, and 1 mM DTT, 10 μL 50 μM ATP, 10 μL 75 mM MgCl2, and 10 μL 1 mU/μL ROCK2 solution. […]
100 μL TMB/E solution was added to each well with a multichannel pipette. Upon sufficient color development, the reaction was stopped using 100 μL stop solution and absorbance read using a Wallac Victor2 plate reader at 450 nm.
Because absorbance values proportional to ROCK2 activity, plotting absorbance at 450 nm versus final concentration of metabolite and parent compound provides inhibition curves. Relative inhibitory profiles were determined through 4PL analysis of these curves. Variations in calculated IC50 are common before assay optimization due to variations in experimental variables.

In assay [14] the test system is human umbilical vein endothelial cells (HUVECs). Put plainly: LPA-stimulated HUVECs, actin stress fibers and vinculin. Type of assay: cell-based. The settings on record: 50 μM, 20 μM LPA 10 min.
Description: Primary HUVEC cells (Gibco®, Thermo Fisher, Waltham, Mass.) are cultured in endothelial growth media (Gibco® Medium 200 basal media Cat supplemented with Gibco® Large Vessel Endothelial Supplement). HUVECs between passage 1 and 4 are used for all experiments. HUVECs are cultured on poly-D-lysine-treated glass coverslips (Corning, Corning, N.Y.) coated with 70 μg/ml rat collagen I (Corning, Corning, N.Y.) and cultured for 4 d until a confluent monolayer of cells is established. […] Then HUVECs are stimulated with 20 μM LPA for 10 min and subsequently fixed using 4% paraformaldehyde (PFA)/sucrose solution.
After PFA fixation, cells on coverslips are permeabilized with TBS-Triton-X100 (0.1%), blocked with 1% bovine serum albumin and incubated with mouse vinculin primary antibody (Table 16). Vinculin immunolabelling is visualized using a secondary anti-mouse fluorescent antibody (Table 16). Actin cytoskeleton is visualized by staining with fluorescent phalloidin (Table 16), a compound that specifically binds F-actin filaments. Epifluorescence microscopy is used to acquire images of Immuno- and phalloidin fluorescence, respectively.
The mark [15] stands for this setting: read-out: Compound IC50 ROCK2 10 μM ATP, CRO Eurofins, 10 μM ATP.
Setting [16] is: read-out: Compound IC50 ROCK1 10 μM ATP, CRO Eurofins, 10 μM ATP.

Read-outs that look alike come from different tables or passages of the source.

T2 sequence (Q13464 2-1354 limits assumed): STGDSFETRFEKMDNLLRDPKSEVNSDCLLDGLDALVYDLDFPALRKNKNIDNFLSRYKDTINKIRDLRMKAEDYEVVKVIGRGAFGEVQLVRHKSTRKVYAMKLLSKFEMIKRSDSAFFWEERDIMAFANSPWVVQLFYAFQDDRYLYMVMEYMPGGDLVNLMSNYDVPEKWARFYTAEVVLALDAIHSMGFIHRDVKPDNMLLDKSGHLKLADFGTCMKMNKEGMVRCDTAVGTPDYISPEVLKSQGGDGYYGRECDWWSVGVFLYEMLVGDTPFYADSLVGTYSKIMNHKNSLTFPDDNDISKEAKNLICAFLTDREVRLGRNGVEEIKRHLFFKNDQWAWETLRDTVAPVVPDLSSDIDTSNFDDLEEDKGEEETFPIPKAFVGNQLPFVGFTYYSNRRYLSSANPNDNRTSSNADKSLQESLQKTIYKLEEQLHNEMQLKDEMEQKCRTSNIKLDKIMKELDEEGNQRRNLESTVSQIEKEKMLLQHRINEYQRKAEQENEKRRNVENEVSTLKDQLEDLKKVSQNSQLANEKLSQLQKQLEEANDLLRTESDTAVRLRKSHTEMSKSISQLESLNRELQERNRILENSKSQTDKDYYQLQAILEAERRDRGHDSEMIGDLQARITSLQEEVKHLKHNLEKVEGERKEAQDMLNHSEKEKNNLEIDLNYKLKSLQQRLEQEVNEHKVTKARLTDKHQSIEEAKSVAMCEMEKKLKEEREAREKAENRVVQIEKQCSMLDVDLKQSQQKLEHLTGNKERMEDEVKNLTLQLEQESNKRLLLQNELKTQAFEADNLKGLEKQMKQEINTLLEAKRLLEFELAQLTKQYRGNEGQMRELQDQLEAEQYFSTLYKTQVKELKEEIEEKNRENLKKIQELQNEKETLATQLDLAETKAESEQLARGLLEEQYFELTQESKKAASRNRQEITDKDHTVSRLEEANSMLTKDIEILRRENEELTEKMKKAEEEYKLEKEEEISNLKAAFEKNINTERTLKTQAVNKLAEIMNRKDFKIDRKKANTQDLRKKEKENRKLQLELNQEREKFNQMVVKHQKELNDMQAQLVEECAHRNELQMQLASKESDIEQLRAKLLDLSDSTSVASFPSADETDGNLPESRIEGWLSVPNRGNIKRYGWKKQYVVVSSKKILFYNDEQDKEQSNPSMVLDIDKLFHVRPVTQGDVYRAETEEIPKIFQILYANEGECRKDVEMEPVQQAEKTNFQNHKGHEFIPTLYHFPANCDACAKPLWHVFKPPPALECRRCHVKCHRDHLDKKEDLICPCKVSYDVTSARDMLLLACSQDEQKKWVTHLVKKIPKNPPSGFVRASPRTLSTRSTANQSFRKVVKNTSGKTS
T1 sequence (O75116 whole entry, species assumed): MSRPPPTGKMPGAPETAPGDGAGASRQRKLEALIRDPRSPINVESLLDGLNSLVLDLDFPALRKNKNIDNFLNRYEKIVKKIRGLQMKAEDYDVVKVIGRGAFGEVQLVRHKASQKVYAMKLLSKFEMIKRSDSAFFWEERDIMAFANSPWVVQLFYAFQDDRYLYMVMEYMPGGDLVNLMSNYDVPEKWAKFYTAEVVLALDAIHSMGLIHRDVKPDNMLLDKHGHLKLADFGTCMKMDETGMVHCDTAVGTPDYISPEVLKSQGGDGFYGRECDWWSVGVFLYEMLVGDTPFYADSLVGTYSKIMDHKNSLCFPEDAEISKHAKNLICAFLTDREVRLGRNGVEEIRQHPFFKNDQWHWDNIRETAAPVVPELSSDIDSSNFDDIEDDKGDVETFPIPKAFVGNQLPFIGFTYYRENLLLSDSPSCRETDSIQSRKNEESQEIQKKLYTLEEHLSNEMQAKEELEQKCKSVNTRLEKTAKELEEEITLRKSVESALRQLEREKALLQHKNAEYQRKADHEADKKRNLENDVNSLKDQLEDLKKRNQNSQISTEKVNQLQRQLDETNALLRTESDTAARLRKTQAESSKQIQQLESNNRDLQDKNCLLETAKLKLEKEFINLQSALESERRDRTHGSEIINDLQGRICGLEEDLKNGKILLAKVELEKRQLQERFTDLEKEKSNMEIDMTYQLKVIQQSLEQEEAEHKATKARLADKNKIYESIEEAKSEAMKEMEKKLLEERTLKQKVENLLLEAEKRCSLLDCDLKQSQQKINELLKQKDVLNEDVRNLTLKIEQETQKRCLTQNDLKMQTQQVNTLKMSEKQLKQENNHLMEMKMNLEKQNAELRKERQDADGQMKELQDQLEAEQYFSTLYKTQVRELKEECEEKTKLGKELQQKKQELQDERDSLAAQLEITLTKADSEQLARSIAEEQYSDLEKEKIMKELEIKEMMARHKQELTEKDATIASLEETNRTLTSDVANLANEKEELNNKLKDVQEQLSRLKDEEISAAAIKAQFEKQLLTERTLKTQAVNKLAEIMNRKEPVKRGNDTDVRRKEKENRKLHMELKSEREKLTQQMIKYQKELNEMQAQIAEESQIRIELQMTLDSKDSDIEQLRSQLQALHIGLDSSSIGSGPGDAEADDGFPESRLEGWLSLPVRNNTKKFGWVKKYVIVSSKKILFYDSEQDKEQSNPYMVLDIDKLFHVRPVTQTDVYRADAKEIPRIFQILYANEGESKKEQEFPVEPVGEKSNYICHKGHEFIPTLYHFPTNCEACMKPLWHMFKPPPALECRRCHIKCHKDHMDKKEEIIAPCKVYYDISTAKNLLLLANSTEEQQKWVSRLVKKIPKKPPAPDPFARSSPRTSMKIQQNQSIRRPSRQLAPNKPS

In the case of `Cc1ccc(C(=O)OCc2ccc([C@@H](CN)C(=O)Nc3ccc4cnccc4c3)cc2)c(C)c1` [AR-13324], the “% Inhibition of Neurotransmitter Transporter Activity, SERT” value in assay [1] was 94%. The “% Inhibition of Neurotransmitter Transporter Activity, NET” value in assay [2] is on record as 96%.

Regarding `C[C@H](N)C1CCN(S(=O)(=O)c2cccc3cnccc23)CC1`, the IC50 was 730 nM in assay [3] (10 μM ATP, Table 2, read-out: Compound IC50 ROCK2); 730 nM in assay [3] (setting [15]); 720 nM in assay [3] (read-out: Compound IC50 ROCK2 10 μM ATP, CRO Reaction Biology, 10 μM ATP); 1000 nM in assay [3] (read-out: Compound IC50 ROCK2 15 μM ATP, Km ATP 15 μM, Table 3); 1000 nM in assay [3] (read-out: Compound IC50 ROCK2 15 μM ATP, Km ATP 15 μM, Table 7); 10.2 µM in assay [7] (10 μM ATP, Table 2, read-out: Compound IC50 ROCK1). Besides, the IC50 in assay [7] (setting [16]) came to 10.2 µM; in assay [7] (read-out: Compound IC50 ROCK1 10 μM ATP, CRO Reaction Biology, 10 μM ATP), 1.44 µM; in assay [7] (read-out: Compound IC50 ROCK1 70 μM ATP, Km ATP 70 μM, Table 3), 57.9 µM; in assay [7] (read-out: Compound IC50 ROCK1 70 μM ATP, Km ATP 70 μM, Table 7), 57.9 µM. Also, the Fold-Difference is recorded as 14.1 in assay [3] (CRO Eurofins, 10 μM ATP); 2.0 in [3] (CRO Reaction Biology, 10 μM ATP); 57.9 in [3] (ROCK1 (70 μM ATP) vs ROCK2 (15 μM ATP) IC50); 14.1 in assay [3] (ROCK1 vs ROCK2 IC50, 10 μM ATP); 0.9 in [10] (Table 5). For the same molecule, in assay [4], the “monolayer integrity after LPA” value is “neither concentration reverses the effect of LPA”. For the same molecule, the “effect on MLC2 diphosphorylation (pMLC2 T18/S19)” value in assay [5] and in assay [6] was “reduce MLC2 diphosphorylation” in each case. In addition, the “monolayer integrity / Rho/ROCK activation after LPA” value in assay [8] is on record as “neither concentration reverses the effect of LPA”. For the same molecule, the Kd came to 155 nM in assay [9] (read-out: ROCK1 KD, average of duplicate determinations, Table 5); 120 nM in [9] (read-out: ROCK1 Kd, Table 1); 160 nM in [10] (read-out: ROCK2 KD, average of duplicate determinations, Table 5); 130 nM in assay [10] (read-out: ROCK2 Kd, Table 1). The “Fractional Selectivity for ROCK2” value in assay [10] (ratio of dissociation constants ROCK1/ROCK2) is 0.92.

As for `CC(N)C1CCN(S(=O)(=O)c2cccc3cnccc23)CC1` (racemic) [BA-1049], the Fold-Difference in assay [3] (CRO Eurofins, 10 μM ATP) was determined as 12.4; in assay [3] (CRO Reaction Biology, 10 μM ATP, listed as Racemic BA-1049: Lot 1) it was 2.1; in [3] (CRO Reaction Biology, 10 μM ATP, listed as Racemic BA-1049: Lot 2), 2.8; in [3] (CRO Upstate Cell Signaling, 10 μM ATP) it was 12.8; in [10] (Table 5, listed as Racemic BA-1049: Lot 1) it was 1.2; in assay [10] (Table 5, listed as Racemic BA-1049: Lot 2), 1.3. Moreover, the IC50 in assay [3] (setting [15]) worked out at 550 nM; in [3] (read-out: Compound IC50 ROCK2 10 μM ATP, CRO Reaction Biology, 10 μM ATP, listed as Racemic BA-1049: Lot 1), 600 nM; in assay [3] (read-out: Compound IC50 ROCK2 10 μM ATP, CRO Reaction Biology, 10 μM ATP, listed as Racemic BA-1049: Lot 2), 1020 nM; in assay [3] (read-out: Compound IC50 ROCK2 10 μM ATP, CRO Upstate Cell Signaling, 10 μM ATP) it was 800 nM; in assay [7] (setting [16]) it was 6.8 µM; in assay [7] (read-out: Compound IC50 ROCK1 10 μM ATP, CRO Reaction Biology, 10 μM ATP, listed as Racemic BA-1049: Lot 1) it was 1.28 µM. For the same molecule, the IC50 in [7] (read-out: Compound IC50 ROCK1 10 μM ATP, CRO Reaction Biology, 10 μM ATP, listed as Racemic BA-1049: Lot 2) was 1.02 µM; in assay [7] (read-out: Compound IC50 ROCK1 10 μM ATP, CRO Upstate Cell Signaling, 10 μM ATP) it was 10.2 µM. Moreover, the “phospho-MLC2 (Ser19) staining of small blood vessels of insular cortex” value in assay [11] is recorded as “even more effective than Fasudil at reducing small vessel staining”. Besides, the “ratio of phospho-cofilin expression left (MCAO) versus right hemisphere” value in assay [12] is reported as “strongly reduced”. Besides, the Kd in [9] (read-out: ROCK1 KD, average of duplicate determinations, Table 5, listed as Racemic BA-1049: Lot 1) is 54 nM; in assay [9] (read-out: ROCK1 KD, average of duplicate determinations, Table 5, listed as Racemic BA-1049: Lot 2), 89 nM; in assay [10] (read-out: ROCK2 KD, average of duplicate determinations, Table 5, listed as Racemic BA-1049: Lot 1) it was 46 nM; in assay [10] (read-out: ROCK2 KD, average of duplicate determinations, Table 5, listed as Racemic BA-1049: Lot 2), 66 nM.

As for `C[C@@H](N)C1CCN(S(=O)(=O)c2cccc3c[n+]([O-])ccc23)CC1` [N-oxide-BA-1049 (R)], the figures for the “effect on MLC2 diphosphorylation (pMLC2 T18/S19)” value in assay [5] and in assay [6] were “did not show such an effect” and “do not show such an effect”, respectively. Also, the “inhibitory activity for ROCK2 relative to parent BA-1049 (R)” value in assay [13] is listed as “does not exhibit any inhibitory activity”.

For the molecule `O=S(=O)(c1cccc2cnccc12)N1CCCNCC1` [Fasudil], in assay [14], the “actin stress fiber formation upon LPA stimulation” value is “prevents such formation of stress fiber” and the “vinculin immunofluorescence, integrity of HUVEC monolayer upon LPA stimulation” value is listed as “upregulation of vinculin-positive focal adhesion complexes associated with a decreased cell confluency”. In addition, in [11], the “phospho-MLC2 (Ser19) staining of small blood vessels of insular cortex” value is “reduces the amount of staining”.

Broadly, the IC50 is the concentration that inhibits the measured activity by half. One may read the Kd as the constant that tells how readily two partners part at equilibrium.
